Data: US20210222144A1, “SELECTIVE HYDRATION OF OLEIC ACID DERIVATIVES” (priority 2018, published 2021)

Assays:
OhyA wild type (WT) = target: T1, OhyA wild type (WT) (Elizabethkingia meningoseptica, UniProt C7DLJ6); assay: Whole cell E. coli biotransformation, hydration of oleic acid and derivatives by OhyA wild type; assay type: cell-based; conditions: whole cell E. coli biocatalyst, 2 mM substrate, 30° C., pH 6.0
T1 construct: His tag with TEV site by the vector name (HISTEV); expressed in transfected cells; host or cells: E. coli BL21 Star (DE3)
T1 sequence (C7DLJ6 whole entry): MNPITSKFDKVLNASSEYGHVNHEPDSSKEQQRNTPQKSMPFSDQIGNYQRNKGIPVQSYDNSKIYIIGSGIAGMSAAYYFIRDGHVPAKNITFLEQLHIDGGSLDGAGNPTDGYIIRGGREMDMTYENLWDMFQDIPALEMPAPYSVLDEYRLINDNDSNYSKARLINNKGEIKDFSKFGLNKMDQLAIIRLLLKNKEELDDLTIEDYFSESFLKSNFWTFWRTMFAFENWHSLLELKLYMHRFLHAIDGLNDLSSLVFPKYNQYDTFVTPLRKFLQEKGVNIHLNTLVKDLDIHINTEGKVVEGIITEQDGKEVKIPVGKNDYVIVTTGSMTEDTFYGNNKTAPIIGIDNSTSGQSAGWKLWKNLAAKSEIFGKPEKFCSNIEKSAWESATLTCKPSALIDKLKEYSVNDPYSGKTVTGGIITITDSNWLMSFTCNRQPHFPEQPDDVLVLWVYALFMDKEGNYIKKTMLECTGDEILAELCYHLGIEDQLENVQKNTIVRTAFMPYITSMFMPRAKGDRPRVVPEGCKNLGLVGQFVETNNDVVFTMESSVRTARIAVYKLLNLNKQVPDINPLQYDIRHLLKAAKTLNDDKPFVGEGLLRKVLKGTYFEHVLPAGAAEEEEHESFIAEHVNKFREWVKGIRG
Procedure: (§1) Free fatty acids were identified and analyzed by gas chromatography-mass spectrometry (GC-MS) and comparison of derived mass fragmentation spectra to authentic standards. A HP-5 column (crosslinked 5% Ph-Me Siloxane; 30 m length, 0.25 mm in diameter and 0.25 μm film thickness) on a Hewlett-Packard 6890 Series II GC equipped with a mass selective detector was used. Sample aliquots of 1 μL were injected in split mode (split ratio 30:1) at 240° C. injector temperature and 290° C. detector temperature with N2 as carrier at a flow rate set to 36 cm s^−1 in constant flow mode. The temperature program was as follows: 100° C. for 1 min, 15° C. min^−1 to 300° C., hold for 5 min. The total run time was 19.33 min. The mass selective detector was operated in a mass range of 50-400 amu at an electron multiplier voltage of 1765 V. Results were evaluated with the GC-MS Data Analysis software (Agilent Technologies, Austria).
(§2) OhyA was recombinantly expressed in E. coli. First, a pre-culture was inoculated with E. coli BL21 Star (DE3) cells harboring pMS470-HISTEV-OhyA wild type enzyme or variants, and was grown in LB supplemented with 100 μg mL^−1 ampicillin at 28° C. and 130 rpm overnight. Main cultures were inoculated to an OD600 of 0.1 in auto induction medium (AIM)—Terrific Broth Base including Trace elements (Formedium, UK) containing 100 μg mL^−1 ampicillin. Recombinant protein was expressed at 28° C. and 130 rpm for 22 h. Cells were harvested by centrifugation for 10 min at 4,400×g and 22° C. and were instantly used for whole cell biotransformation or were frozen at −20° C. until protein purification.
(§3) For bioconversion assays of oleic acid (OA) and OA derivatives, i.e. substrates (1) to (10), 50 OD600 units of thus prepared cells, which are corresponding to a cell dry weight of 50 mg, were resuspended in 50 mM HEPES, pH 6.0, supplemented with 100 mM glucose and 0.2 mM FAD in Pyrex® glass culture tubes (Corning, N.Y.). Biotransformation at 1 mL scale were started by adding substrate to a final concentration of 2 mM from an ethanolic stock solution (100 mM). n-pentadecanoic acid (1 mM) was used as internal standard. The reactions were conducted in the presence of 2% (v/v) of ethanol as co-solvent at 30° C. and shaking at 150 rpm at a defined angle of the Pyrex® tubes (55°). Biotransformation were performed for 22 h or 96 h. The assays were quenched by acidification to pH 2.0 with 0.12 M HCl, and fatty acid derivatives were extracted twice with 2 mL of ethyl acetate while agitating on a Vibrax VXR basic shaker (IKA, Germany) for 30 min. The suspension was centrifuged for 5 min at 2,900×g and 22° C. to improve the separation of the phases. Combined organic phases were concentrated under a N2 stream. Fatty acid derivatives were silylated with 10 μL of pyridine and 50 μL of N,O-bis(trimethylsilyl)trifluoroacetamide (BSTFA). After incubation for 30 min at 500 rpm, extracts were diluted with 200 μL of ethyl acetate and analyzed by GC-MS. […]

OhyA Q265A/T436A/N438A = target: T2, OhyA Q265A/T436A/N438A (Elizabethkingia meningoseptica, UniProt C7DLJ6, N438A/Q265A/T436A); assay: Whole cell E. coli biotransformation, hydration of oleic acid and derivatives by mutant OhyA Q265A/T436A/N438A; assay type: cell-based; conditions: for relative hydration activity compared to wt-OhyA: OhyA Q265A/T436A/N438A versus wt-OhyA; for e.e. of hydrated product: abs. conf. at C-10: R, table does not separate WT and mutant; for Apparent hydration activity normalized for biomass, OhyA Q265A/T436A/N438A: whole cell E. coli biocatalyst, 2 mM substrate, 30° C., pH 6.0
T2 construct: His tag with TEV site by the vector name (HISTEV); expressed in transfected cells; host or cells: E. coli BL21 Star (DE3)
T2 sequence (C7DLJ6 whole entry Q265A/T436A/N438A): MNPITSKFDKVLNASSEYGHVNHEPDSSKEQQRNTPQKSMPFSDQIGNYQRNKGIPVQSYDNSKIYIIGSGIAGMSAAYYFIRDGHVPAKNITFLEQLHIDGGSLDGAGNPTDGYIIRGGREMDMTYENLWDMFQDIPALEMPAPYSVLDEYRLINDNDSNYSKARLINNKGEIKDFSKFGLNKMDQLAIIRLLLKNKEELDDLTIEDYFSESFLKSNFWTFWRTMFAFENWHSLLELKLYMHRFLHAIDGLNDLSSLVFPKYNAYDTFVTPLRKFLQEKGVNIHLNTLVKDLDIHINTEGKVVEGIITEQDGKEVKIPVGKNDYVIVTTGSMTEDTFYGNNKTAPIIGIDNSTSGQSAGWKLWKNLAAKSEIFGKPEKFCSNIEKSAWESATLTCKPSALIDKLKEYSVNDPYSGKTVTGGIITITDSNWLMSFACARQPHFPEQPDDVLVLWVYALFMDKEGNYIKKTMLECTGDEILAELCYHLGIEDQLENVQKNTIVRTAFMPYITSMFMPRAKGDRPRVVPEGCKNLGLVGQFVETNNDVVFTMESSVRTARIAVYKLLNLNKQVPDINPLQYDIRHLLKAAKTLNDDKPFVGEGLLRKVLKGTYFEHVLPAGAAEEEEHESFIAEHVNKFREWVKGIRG
Procedure: as §1, §2, §3

OhyA Q265A/N438A = target: T3, OhyA Q265A/N438A (Elizabethkingia meningoseptica, UniProt C7DLJ6, N438A/Q265A); assay: Bioconversion with modified OhyA variant Q265A/N438A; assay type: cell-based; conditions: OhyA Q265A/N438A in bioconversions
T3 construct: His tag with TEV site by the vector name (HISTEV); expressed in transfected cells; host or cells: E. coli BL21 Star (DE3)
T3 sequence (C7DLJ6 whole entry Q265A/N438A): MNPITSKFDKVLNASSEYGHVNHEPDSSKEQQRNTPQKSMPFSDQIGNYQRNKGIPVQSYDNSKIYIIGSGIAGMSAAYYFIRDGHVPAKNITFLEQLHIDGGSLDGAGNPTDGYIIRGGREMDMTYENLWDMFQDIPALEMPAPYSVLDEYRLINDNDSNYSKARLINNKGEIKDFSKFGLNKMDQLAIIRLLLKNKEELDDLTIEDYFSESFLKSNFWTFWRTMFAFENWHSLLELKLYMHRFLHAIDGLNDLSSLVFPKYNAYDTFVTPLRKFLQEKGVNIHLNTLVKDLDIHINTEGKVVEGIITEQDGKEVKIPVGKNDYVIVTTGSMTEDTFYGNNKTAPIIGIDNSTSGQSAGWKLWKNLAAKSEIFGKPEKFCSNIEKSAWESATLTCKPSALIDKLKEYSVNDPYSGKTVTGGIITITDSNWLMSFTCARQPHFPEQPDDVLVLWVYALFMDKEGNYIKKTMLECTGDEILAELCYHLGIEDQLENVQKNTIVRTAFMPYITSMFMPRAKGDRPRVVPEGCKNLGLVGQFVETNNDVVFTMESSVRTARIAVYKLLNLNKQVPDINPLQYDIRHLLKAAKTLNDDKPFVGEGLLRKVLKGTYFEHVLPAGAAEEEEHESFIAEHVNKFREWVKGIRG
Procedure: as §2
For bioconversion assays of oleic acid (OA) and OA derivatives, i.e. substrates (1) to (10), 50 OD600 units of thus prepared cells, which are corresponding to a cell dry weight of 50 mg, were resuspended in 50 mM HEPES, pH 6.0, supplemented with 100 mM glucose and 0.2 mM FAD in Pyrex® glass culture tubes (Corning, N.Y.). Biotransformation at 1 mL scale were started by adding substrate to a final concentration of 2 mM from an ethanolic stock solution (100 mM). n-pentadecanoic acid (1 mM) was used as internal standard. […] After incubation for 30 min at 500 rpm, extracts were diluted with 200 μL of ethyl acetate and analyzed by GC-MS.

[1] = target: oleate hydratase from Elizabethkingia meningoseptica (OhyA, EC 4.2.1.53) (Elizabethkingia meningoseptica, UniProt C7DLJ6); conditions: wild-type OhyA, without co-factor recycling; cited from earlier work
Sequence of oleate hydratase from Elizabethkingia meningoseptica (OhyA, EC 4.2.1.53) (C7DLJ6 whole entry): as the sequence (C7DLJ6 whole entry) above

[2] = target: T4, mutant OhyA Q265A/T436A/N438A (Elizabethkingia meningoseptica, UniProt C7DLJ6, N438A/Q265A/T436A); assay: Anaerobic in vitro hydration with purified OhyA after reduction of the FAD cofactor; assay type: biochemical; conditions: purified enzyme, reduced FAD, overnight incubation, wt-OhyA compared with mutant
T4 construct: His tag with TEV site by the vector name (HISTEV); made in house; host or cells: E. coli BL21 Star (DE3)
T4 sequence (C7DLJ6 whole entry Q265A/T436A/N438A): as the sequence (C7DLJ6 whole entry Q265A/T436A/N438A) above
Procedure: For purification of the recombinant OhyA, cell pellets were resuspended in 50 mM HEPES, pH 7.4, containing 10 mM imidazole. Cells were lysed by ultrasonication for 4 min with a Sonifier® 250 (Branson, Danbury, Conn.) setting the duty cycle to 80% and the output control to level 8. Cell free extract (CFE) was separated from the total cell lysate (TCL) by centrifugation for 35 min at 48,300×g and 4° C., and was filtered through 0.22 μm filters (Millipore, Bedford, Mass.) prior to loading it onto a pre-equilibrated self-packed Ni-NTA affinity chromatography column (GE Healthcare, United Kingdom). Prior to any further analyses, purified OhyA was incubated with a 10-fold molar excess of FAD over night at 4° C. Unbound FAD was removed from the protein aliquot by buffer exchange via PD-10 desalting columns (GE Healthcare, United Kingdom) according to the recommended protocol.
For reduction of the enzyme-bound flavin cofactor, wt-OhyA and mutant Q265A/T436A/N438A were diluted in 50 mM HEPES, pH 7.4, containing 50 mM NaCl, 5 mM EDTA, 1 μM 5-deazariboflavin and 4 μM methyl viologen to give an absorption of approximately 0.2 AU at 440 nm. The solution was transferred to a cuvette and oxygen was removed by incubation for at least 2 h in a glove box. Afterwards, the cofactor was reduced by anaerobic photoreduction or chemical reduction with dithiothreitol (DTT). […]

Row | Structure (SMILES) | Apparent hydration activity normalized for biomass, OhyA WT (OhyA wild type (WT)) [mU g^−1 CDW] | relative hydration activity compared to wt-OhyA (OhyA Q265A/T436A/N438A) | e.e. of hydrated product (OhyA Q265A/T436A/N438A) [%] | Apparent hydration activity normalized for biomass, OhyA Q265A/T436A/N438A (OhyA Q265A/T436A/N438A) [mU g^−1 CDW] | enhanced relative hydration activity (OhyA Q265A/N438A) | enantiomeric excess (ee) of (R)-10-hydroxy stearic acid [1] | peak at the expected retention time of the hydrated product (GC-MS) [2]
1 | CCCCCCCC/C=C\CCCCCCCC(=O)OCCC [Entry 9, n-propyl oleate] | 0.2 ± 0.1 | 20 fold | >99 | 0.9 ± 0.1 | – | – | –
2 | CCCCCCCC/C=C\CCCCCCCC(=O)NO [Entry 4, N-hydroxy oleamide] | 3.4 ± 0.7 | at least 5 fold | >99 | 13.4 ± 2.5 | at least 5 fold | – | –
3 | CCCCCCCC/C=C\CCCCCCCC(=O)OCC [Entry 7, ethyl oleate] | 0.2 ± 0.1 | 6 fold | >99 | 1.7 ± 0.1 | – | – | –
4 | CCCCCCCC/C=C\CCCCCCCC(=O)OC(C)C [Entry 8, i-propyl oleate] | 0.1 ± 0.1 | – | >99 | 1.5 ± 0.1 | – | – | –
5 | CCCCCCCC/C=C\CCCCCCCCN [Entry 2, oleyl amine] | – | – | >99 | – | – | – | –
6 | CCCCCCCC/C=C\CCCCCCCC(=O)OCCCC [Entry 10, n-butyl oleate] | 0.1 ± 0.1 | – | >99 | 0.8 ± 0.1 | – | – | –
7 | CCCCCCCC/C=C\CCCCCCCC(N)=O [Entry 3, oleamide] | 11.1 ± 0.7 | – | >99 | 10.7 ± 0.3 | – | – | –
8 | CCCCCCCC/C=C\CCCCCCCC(=O)O [Entry 1, oleic acid] | 26.3 ± 0.2 | – | >99 | 28.4 ± 0.3 | – | at least 98% | –
9 | CCCCCCCC/C=C\CCCCCCCC(=O)OC [Entry 6, methyl oleate] | 0.3 ± 0.1 | 6 fold | >99 | 2.5 ± 0.2 | – | – | only in the case of the variant
10 | CCCCCCCC/C=C\CCCCCCCCO [Entry 5, oleyl alcohol] | 8.4 ± 2.1 | at least 2 fold | >99 | 15.5 ± 1.0 | – | – | –
